In the supplement of paper PMC9013687:

Key:
[1] = tested on: Danio rerio embryo; assay: EC50 Eye-jaw distance_Decrease; details: exposure time: 4 dpf
Method: (§1)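 Zebrafish embryos (UFZ-OBI strain) were exposed from 2 hpf for 48 h (2 dpf) or 96 h (4 dpf) at 28 °C; spontaneous tail coiling was scored at 25 hpf. Morphological features from automated image analysis (FishInspector), heart rate and locomotor response were fitted with drc models. Quantal endpoints were dichotomised at 2.5 SD from controls and fitted with a log-logistic model; heart rate, pigmentation and STC were normalised to the replicate control mean. Betamethasone was tested as betamethasone dipropionate, diflorasone as diflorasone diacetate.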

[2] = tested on: Danio rerio embryo; assay: EC10 Eye-jaw distance_Decrease; higher = less potent; details: exposure time: 4 dpf
Method: as §1

[3] = tested on: Danio rerio embryo; assay: EC50 Curvature_Increase
Method: as §1

[4] = tested on: Danio rerio embryo
Method: as §1

[5] = tested on: Danio rerio embryo; assay: EC20 Body length_Decrease; higher = less potent; details: exposure time: 2 dpf
Method: as §1

[6] = tested on: Danio rerio embryo; assay: EC20 Pericard size_Increase; higher = less potent; details: exposure time: 4 dpf
Method: as §1

[7] = tested on: Danio rerio embryo; assay: EC10 Lack of SB; higher = less potent; details: exposure time: 4 dpf
Method: as §1

[8] = tested on: Danio rerio embryo; assay: EC10 Body length_Decrease; higher = less potent; details: exposure time: 2 dpf
Method: as §1

[9] = tested on: Danio rerio embryo; assay: EC20 Any effect; higher = less potent
Method: as §1

[10] = tested on: Danio rerio embryo; assay: EC20 Eye size_Decrease; higher = less potent
Method: as §1

[11] = tested on: Danio rerio embryo; assay: EC20 Otolith-eye distance_Decrease; higher = less potent; details: exposure time: 4 dpf
Method: as §1

[12] = tested on: Danio rerio embryo; assay: EC10 Head trunk angle_Decrease; higher = less potent; details: exposure time: 2 dpf
Method: as §1

[13] = tested on: Danio rerio embryo; assay: EC50 Bladder size_Decrease; details: exposure time: 4 dpf
Method: as §1

[14] = tested on: Danio rerio embryo; assay: EC10 Curvature_Increase; higher = less potent
Method: as §1

[15] = tested on: Danio rerio embryo; assay: EC50 Head trunk angle_Decrease; details: exposure time: 2 dpf
Method: as §1

[16] = tested on: Danio rerio embryo; assay: EC10 Any effect; higher = less potent
Method: as §1

[17] = tested on: Danio rerio embryo; assay: EC10 Pericard size_Increase; higher = less potent; details: exposure time: 4 dpf
Method: as §1

[18] = tested on: Danio rerio embryo; assay: EC50 Body length_Decrease; details: exposure time: 2 dpf
Method: as §1

[19] = tested on: Danio rerio embryo; assay: EC20 Curvature_Increase; higher = less potent
Method: as §1

[20] = tested on: Danio rerio embryo; assay: EC50 Pericard size_Increase; details: exposure time: 4 dpf
Method: as §1

[21] = tested on: Danio rerio embryo; assay: spontaneous tail coiling frequency (coils/min/embryo); higher = more spontaneous movement; details: 25 hpf
Method: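 Spontaneous tail coilings of zebrafish embryos exposed from 2 hpf were recorded at 24-25 hpf in 1-min videos and detected by a KNIME workflow from grey-value variance. Betamethasone was tested as the dipropionate, diflorasone as the diacetate.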

[22] = tested on: Danio rerio embryo; assay: EC10 Eye size_Decrease; higher = less potent
Method: as §1

[23] = tested on: Danio rerio embryo; assay: EC20 Eye-jaw distance_Decrease; higher = less potent; details: exposure time: 4 dpf
Method: as §1

[24] = tested on: Danio rerio embryo; assay: EC50 Eye size_Decrease
Method: as §1

[25] = tested on: Danio rerio embryo; assay: EC20 Bladder size_Decrease; higher = less potent; details: exposure time: 4 dpf
Method: as §1

[26] = tested on: Danio rerio embryo; assay: EC20 Head trunk angle_Decrease; higher = less potent; details: exposure time: 2 dpf
Method: as §1

[27] = tested on: Danio rerio embryo; assay: EC10 Bladder size_Decrease; higher = less potent; details: exposure time: 4 dpf
Method: as §1

[28] = tested on: Danio rerio embryo; details: exposure time: 4 dpf
Method: as §1

[29] = tested on: Danio rerio embryo; assay: EC20 Lack of SB; higher = less potent; details: exposure time: 4 dpf
Method: as §1

[30] = tested on: Danio rerio embryo; assay: EC10 Otolith-eye distance_Decrease; higher = less potent; details: exposure time: 4 dpf
Method: as §1

[31] = tested on: Danio rerio embryo; assay: EC50 Otolith-eye distance_Decrease; details: exposure time: 4 dpf
Method: as §1

COC(=O)Nc1nc2cc(Sc3ccccc3)ccc2[nH]1 [Fenbendazole]
Details	EC10 Bladder size Decrease [nM]	EC10 Body length Decrease [nM]	EC10 Eye-jaw distance Decrease [nM]	EC10 Head trunk angle Decrease [nM]	EC10 Lack of SB [nM]	EC10 Otolith-eye distance Decrease [nM]	EC10 Pericard size Increase [nM]	EC20 Bladder size Decrease [nM]	EC20 Body length Decrease [nM]	EC20 Eye-jaw distance Decrease [nM]	EC20 Head trunk angle Decrease [nM]	EC20 Lack of SB [nM]	EC20 Otolith-eye distance Decrease [nM]	EC20 Pericard size Increase [nM]	EC50 Bladder size Decrease [nM]	EC50 Body length Decrease [nM]	EC50 Eye-jaw distance Decrease [nM]	EC50 Head trunk angle Decrease [nM]	EC50 Lack of SB [nM]	EC50 Otolith-eye distance Decrease [nM]	EC50 Pericard size Increase [nM]
[1]	–	–	–	–	–	–	–	–	–	–	–	–	–	–	–	–	81	–	–	–	–
[2]	–	–	53	–	–	–	–	–	–	–	–	–	–	–	–	–	–	–	–	–	–
[5]	–	–	–	–	–	–	–	–	35	–	–	–	–	–	–	–	–	–	–	–	–
[6]	–	–	–	–	–	–	–	–	–	–	–	–	–	73	–	–	–	–	–	–	–
[7]	–	–	–	–	46	–	–	–	–	–	–	–	–	–	–	–	–	–	–	–	–
[8]	–	30	–	–	–	–	–	–	–	–	–	–	–	–	–	–	–	–	–	–	–
[11]	–	–	–	–	–	–	–	–	–	–	–	–	77	–	–	–	–	–	–	–	–
[12]	–	–	–	37	–	–	–	–	–	–	–	–	–	–	–	–	–	–	–	–	–
[13]	–	–	–	–	–	–	–	–	–	–	–	–	–	–	49	–	–	–	–	–	–
[15]	–	–	–	–	–	–	–	–	–	–	–	–	–	–	–	–	–	41	–	–	–
[17]	–	–	–	–	–	–	67	–	–	–	–	–	–	–	–	–	–	–	–	–	–
[18]	–	–	–	–	–	–	–	–	–	–	–	–	–	–	–	45	–	–	–	–	–
[20]	–	–	–	–	–	–	–	–	–	–	–	–	–	–	–	–	–	–	–	–	85
[23]	–	–	–	–	–	–	–	–	–	62	–	–	–	–	–	–	–	–	–	–	–
[25]	–	–	–	–	–	–	–	47	–	–	–	–	–	–	–	–	–	–	–	–	–
[26]	–	–	–	–	–	–	–	–	–	–	38	–	–	–	–	–	–	–	–	–	–
[27]	45	–	–	–	–	–	–	–	–	–	–	–	–	–	–	–	–	–	–	–	–
[28]	–	–	–	–	–	–	–	–	–	–	–	–	–	–	–	–	–	–	50	–	–
[29]	–	–	–	–	–	–	–	–	–	–	–	47	–	–	–	–	–	–	–	–	–
[30]	–	–	–	–	–	70	–	–	–	–	–	–	–	–	–	–	–	–	–	–	–
[31]	–	–	–	–	–	–	–	–	–	–	–	–	–	–	–	–	–	–	–	89	–

Details	EC10 Any effect [nM]	EC10 Curvature Increase [nM]	EC10 Eye size Decrease [nM]	EC20 Any effect [nM]	EC20 Curvature Increase [nM]	EC20 Eye size Decrease [nM]	EC50 Any effect [nM]	EC50 Curvature Increase [nM]	EC50 Eye size Decrease [nM]	spontaneous tail coiling frequency
[3], exposure time: 2 dpf	–	–	–	–	–	–	–	38	–	–
[3], exposure time: 4 dpf	–	–	–	–	–	–	–	82	–	–
[4], exposure time: 2 dpf	–	–	–	–	–	–	32	–	–	–
[4], exposure time: 4 dpf	–	–	–	–	–	–	70	–	–	–
[9], exposure time: 2 dpf	–	–	–	19	–	–	–	–	–	–
[9], exposure time: 4 dpf	–	–	–	56	–	–	–	–	–	–
[10], exposure time: 2 dpf	–	–	–	–	–	37	–	–	–	–
[10], exposure time: 4 dpf	–	–	–	–	–	70	–	–	–	–
[14], exposure time: 2 dpf	–	22	–	–	–	–	–	–	–	–
[14], exposure time: 4 dpf	–	62	–	–	–	–	–	–	–	–
[16], exposure time: 2 dpf	14	–	–	–	–	–	–	–	–	–
[16], exposure time: 4 dpf	49	–	–	–	–	–	–	–	–	–
[19], exposure time: 2 dpf	–	–	–	–	27	–	–	–	–	–
[19], exposure time: 4 dpf	–	–	–	–	68	–	–	–	–	–
[21], 0.013 µM	–	–	–	–	–	–	–	–	–	0.94
[21], 0.017 µM	–	–	–	–	–	–	–	–	–	2.28
[21], 0.02 µM	–	–	–	–	–	–	–	–	–	1.96
[21], 0.03 µM	–	–	–	–	–	–	–	–	–	1.28
[21], 0.0319628 µM	–	–	–	–	–	–	–	–	–	4.8
[21], 0.045 µM	–	–	–	–	–	–	–	–	–	1.58
[21], 0.0477056 µM	–	–	–	–	–	–	–	–	–	5.09
[21], 0.048 µM	–	–	–	–	–	–	–	–	–	2.73
[21], 0.064 µM	–	–	–	–	–	–	–	–	–	2.5
[21], 0.067 µM	–	–	–	–	–	–	–	–	–	4.88
[21], 0.0715584 µM	–	–	–	–	–	–	–	–	–	6.17
[21], 0.084 µM	–	–	–	–	–	–	–	–	–	2.72
[21], 0.087 µM	–	–	–	–	–	–	–	–	–	4.84
[21], 0.107 µM	–	–	–	–	–	–	–	–	–	4.95
[22], exposure time: 2 dpf	–	–	31	–	–	–	–	–	–	–
[22], exposure time: 4 dpf	–	–	64	–	–	–	–	–	–	–
[24], exposure time: 2 dpf	–	–	–	–	–	–	–	–	51	–
[24], exposure time: 4 dpf	–	–	–	–	–	–	–	–	82	–
